Patent US20150315188A1, “COMPOUNDS AND METHODS FOR TREATMENT OF HYPERTENSION” (MEDIVATION TECHNOLOGIES, INC., priority 2012, published 2015)

These molecules were tested against T1, Human adrenergic α2A receptor (Homo sapiens, UniProt P08913) (assay: β-Arrestin GPCR functional assay, adrenergic α2A (Protocol B)). Settings: β-arrestin, antagonist vs nor-epinephrine EC80.
T1 sequence (P08913 1-465): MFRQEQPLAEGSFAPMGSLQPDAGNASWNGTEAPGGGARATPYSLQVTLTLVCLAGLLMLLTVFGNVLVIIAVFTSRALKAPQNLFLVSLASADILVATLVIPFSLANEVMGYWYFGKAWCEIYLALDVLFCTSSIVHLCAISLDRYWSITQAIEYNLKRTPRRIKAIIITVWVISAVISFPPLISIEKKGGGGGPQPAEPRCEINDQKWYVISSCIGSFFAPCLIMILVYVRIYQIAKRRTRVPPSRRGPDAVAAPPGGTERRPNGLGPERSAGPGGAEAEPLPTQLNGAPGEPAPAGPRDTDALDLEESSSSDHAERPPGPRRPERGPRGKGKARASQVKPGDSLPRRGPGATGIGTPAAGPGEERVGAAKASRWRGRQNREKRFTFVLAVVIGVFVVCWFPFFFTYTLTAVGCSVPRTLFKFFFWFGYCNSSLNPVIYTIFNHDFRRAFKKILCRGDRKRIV
Type: cell-based
Description: (§1) To evaluate the activity of compounds in β-Arrestin GPCR functional assays, recombinant CHO cell line (DiscoveRX), over expressed with human adrenergic α2A receptor were used. The experiment was done with kit of DiscoveRX as per recommended protocol of the supplier. Cells were harvested from culture flask using cell dissociation solution (CDS) and plated at a density of 12,000 cells/well in CP reagent (supplied with the kit) in a half area 96-well white polystyrene plate. After 24 h incubation at 37° C., compounds at various concentrations in 1% (final) DMSO were charged to the cells for 30 min at 37° C. Active nor-epinephrine (-NE) at its EC80 concentrations (270 nM) were then added to the cells and incubated for another 90 min at 37° C. Detection mix was prepared by mixing of Path Hunter cell assay buffer, Emerald II solution and Galactone star solution in a ratio of 19:5:1 and incubated with the cells for 60 min at RT in the dark. The reading was taken in Envision at luminescence mode. Biochemical assay results are presented as the percent Inhibition in Table B2a, or IC50 values in Table B2b.

In order of rising IC50:
1. Cc1ccc2c(c1F)c1c(n2CC(C)(O)c2cccnc2)CCN2CCCC12 (single isomer, unassigned) [87c]  787 nM
2. Cc1cc(F)c2c(c1)c1c(n2CC(C)(O)c2ccncc2)CCN2CCCC12 (single isomer, unassigned) [81b]  1650 nM
3. CC(O)(Cn1c2c(c3cc(F)cc(Cl)c31)C1CCCN1CC2)c1cccnc1 (single isomer, unassigned) [89d]  1970 nM
4. Cc1ccc2c(c1)c1c(n2CC(C)(O)c2cccnc2)CC2CCCN2C1 (single isomer, unassigned) [38c]  7820 nM

These molecules were tested against T2, Human adrenergic α1B receptor (Homo sapiens, UniProt P35368) (assay: Radioligand binding, adrenergic α1B (Protocol Group B)). Settings: 0.1 μM compound; Protocol Group B; 0.1 µM.
T2 sequence (P35368 1-520): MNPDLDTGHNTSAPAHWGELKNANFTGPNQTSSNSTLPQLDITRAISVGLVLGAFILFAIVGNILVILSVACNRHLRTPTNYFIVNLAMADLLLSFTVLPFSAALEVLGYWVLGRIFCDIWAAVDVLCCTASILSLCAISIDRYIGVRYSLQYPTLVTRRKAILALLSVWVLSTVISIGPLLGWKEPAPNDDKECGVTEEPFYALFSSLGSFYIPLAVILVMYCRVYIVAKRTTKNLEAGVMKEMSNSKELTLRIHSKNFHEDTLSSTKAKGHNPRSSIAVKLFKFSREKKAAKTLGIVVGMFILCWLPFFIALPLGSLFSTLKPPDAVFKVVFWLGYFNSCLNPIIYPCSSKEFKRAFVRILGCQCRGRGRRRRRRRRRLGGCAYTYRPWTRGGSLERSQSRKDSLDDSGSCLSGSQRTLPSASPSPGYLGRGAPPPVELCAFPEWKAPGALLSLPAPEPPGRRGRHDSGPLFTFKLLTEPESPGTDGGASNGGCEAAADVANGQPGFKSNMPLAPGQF
Set-up: purchased Milipore (Millipore)
Summary of the method: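 Values are percent inhibition of specific [3H]prazosin (0.3 nM) binding or estimated Ki, from filtration counting. Human α1B recombinant membranes, Tris-HCl pH 7.4 buffer with MgCl2 and EDTA, 60 min at 25 °C, 1% DMSO vehicle; 10 μM prazosin defined nonspecific binding.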

In order of rising “Percentage inhibition of ligand binding, Adrenergic α1B (0.1 μM)” value:
1. Cc1ccc2c(c1)c1c(n2CC(C)(O)c2cccnc2)CC2CCCN2C1 (single isomer, unassigned) [38c]  2%
2. CC(O)(Cn1c2c(c3cc(F)cc(Cl)c31)C1CCCN1CC2)c1cccnc1 (single isomer, unassigned) [89d]  15%
3. Cc1cc(F)c2c(c1)c1c(n2CC(C)(O)c2ccncc2)CCN2CCCC12 (single isomer, unassigned) [81b]  49%
4. Cc1ccc2c(c1F)c1c(n2CC(C)(O)c2cccnc2)CCN2CCCC12 (single isomer, unassigned) [87c]  62%

Same assay, conditions: 0.3 μM compound; Protocol Group B; 0.3 µM

In order of rising “Percentage inhibition of ligand binding, Adrenergic α1B (0.3 μM)” value:
1. Cc1ccc2c(c1)c1c(n2CC(C)(O)c2cccnc2)CC2CCCN2C1 (single isomer, unassigned) [38c]  23%
2. CC(O)(Cn1c2c(c3cc(F)cc(Cl)c31)C1CCCN1CC2)c1cccnc1 (single isomer, unassigned) [89d]  54%
3. Cc1cc(F)c2c(c1)c1c(n2CC(C)(O)c2ccncc2)CCN2CCCC12 (single isomer, unassigned) [81b]  76%
4. Cc1ccc2c(c1F)c1c(n2CC(C)(O)c2cccnc2)CCN2CCCC12 (single isomer, unassigned) [87c]  86%

Same assay, conditions: Protocol Group B; estimated Ki

In order of falling Ki:
1. Cc1cc(F)c2c(c1)c1c(n2CC(C)(O)c2ccncc2)CCN2CCCC12 (single isomer, unassigned) [81b]  35.6 nM
2. Cc1ccc2c(c1F)c1c(n2CC(C)(O)c2cccnc2)CCN2CCCC12 (single isomer, unassigned) [87c]  26.2 nM

The molecules below were run against T3, Human adrenergic α2B receptor (Homo sapiens, UniProt P18089) (assay: β-Arrestin GPCR functional assay, adrenergic α2B (Protocol B)). Settings: β-arrestin, antagonist vs nor-epinephrine EC80; read-out: IC50 Adrenergic α2B.
T3 sequence (P18089 1-450): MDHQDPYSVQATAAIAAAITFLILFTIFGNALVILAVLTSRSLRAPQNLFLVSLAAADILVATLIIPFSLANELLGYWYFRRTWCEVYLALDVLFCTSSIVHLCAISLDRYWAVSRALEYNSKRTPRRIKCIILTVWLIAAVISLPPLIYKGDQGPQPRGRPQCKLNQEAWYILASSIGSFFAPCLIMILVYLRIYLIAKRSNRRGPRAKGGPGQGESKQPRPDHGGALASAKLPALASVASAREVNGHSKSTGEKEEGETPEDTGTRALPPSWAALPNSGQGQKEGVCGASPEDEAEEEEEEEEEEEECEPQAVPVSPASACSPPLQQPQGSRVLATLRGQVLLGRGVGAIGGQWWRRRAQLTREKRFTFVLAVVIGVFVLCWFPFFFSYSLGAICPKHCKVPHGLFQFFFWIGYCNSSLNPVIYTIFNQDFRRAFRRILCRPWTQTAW
Type: cell-based
Description: as §1, with “α2B” for “α2A”, “(50” for “(270”

In order of falling IC50:
1. Cc1ccc2c(c1)c1c(n2CC(C)(O)c2cccnc2)CC2CCCN2C1 (single isomer, unassigned) [38c]  364 nM
2. Cc1cc(F)c2c(c1)c1c(n2CC(C)(O)c2ccncc2)CCN2CCCC12 (single isomer, unassigned) [81b]  15 nM
3. Cc1ccc2c(c1F)c1c(n2CC(C)(O)c2cccnc2)CCN2CCCC12 (single isomer, unassigned) [87c]  13 nM

Each molecule was assayed against T1, Human adrenergic α2A receptor (assay: Radioligand binding, adrenergic α2A (Protocol Group B)). Settings: 0.1 μM compound; Protocol Group B; 0.1 µM.
Set-up: purchased Milipore (Millipore)
Summary of the method: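 Compounds (1% DMSO vehicle, various concentrations) competed against 2 nM [^3H]MK-912 on recombinant receptor membranes for 60 min at 25° C, Tris-HCl pH 7.4 buffer with Mg2+, Ca2+, BSA. Bound radioligand filtered and counted; 10 μM rauwolscine set nonspecific binding. Values: percent inhibition of specific binding or estimated Ki.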

In order of falling “Percentage inhibition of ligand binding, Adrenergic α2A (0.1 μM)” value:
1. Cc1ccc2c(c1F)c1c(n2CC(C)(O)c2cccnc2)CCN2CCCC12 (single isomer, unassigned) [87c]  85%
2. CC(O)(Cn1c2c(c3cc(F)cc(Cl)c31)C1CCCN1CC2)c1cccnc1 (single isomer, unassigned) [89d]  74%
3. Cc1cc(F)c2c(c1)c1c(n2CC(C)(O)c2ccncc2)CCN2CCCC12 (single isomer, unassigned) [81b]  68%
4. Cc1ccc2c(c1)c1c(n2CC(C)(O)c2cccnc2)CC2CCCN2C1 (single isomer, unassigned) [38c]  7%

Same assay, conditions: 0.3 μM compound; Protocol Group B; 0.3 µM

In order of rising “Percentage inhibition of ligand binding, Adrenergic α2A (0.3 μM)” value:
1. Cc1ccc2c(c1)c1c(n2CC(C)(O)c2cccnc2)CC2CCCN2C1 (single isomer, unassigned) [38c]  31%
2. Cc1cc(F)c2c(c1)c1c(n2CC(C)(O)c2ccncc2)CCN2CCCC12 (single isomer, unassigned) [81b]  85%
3. Cc1ccc2c(c1F)c1c(n2CC(C)(O)c2cccnc2)CCN2CCCC12 (single isomer, unassigned) [87c]  94%
4. CC(O)(Cn1c2c(c3cc(F)cc(Cl)c31)C1CCCN1CC2)c1cccnc1 (single isomer, unassigned) [89d]  99%

Same assay, conditions: Protocol Group B; estimated Ki

In order of rising Ki:
1. Cc1ccc2c(c1F)c1c(n2CC(C)(O)c2cccnc2)CCN2CCCC12 (single isomer, unassigned) [87c]  8.9 nM
2. CC(O)(Cn1c2c(c3cc(F)cc(Cl)c31)C1CCCN1CC2)c1cccnc1 (single isomer, unassigned) [89d]  26.2 nM
3. Cc1cc(F)c2c(c1)c1c(n2CC(C)(O)c2ccncc2)CCN2CCCC12 (single isomer, unassigned) [81b]  27.3 nM

Each molecule was assayed against T3, Human adrenergic α2B receptor (assay: Radioligand binding, adrenergic α2B (Protocol Group B)). Settings: 10 nM compound; Protocol Group B; 0.01 µM.
Set-up: purchased Milipore (Millipore)
Summary of the method: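 Compounds at various concentrations in 1% DMSO were tested on recombinant membranes in Tris-HCl pH 7.4 buffer containing MgCl2, CaCl2 and 0.2% BSA.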

In order of falling “Percentage inhibition of ligand binding, Adrenergic α2B (10 nM)” value:
1. CC(O)(Cn1c2c(c3cc(F)cc(Cl)c31)C1CCCN1CC2)c1cccnc1 (single isomer, unassigned) [89d]  104%
2. Cc1cc(F)c2c(c1)c1c(n2CC(C)(O)c2ccncc2)CCN2CCCC12 (single isomer, unassigned) [81b]  98%
3. Cc1ccc2c(c1F)c1c(n2CC(C)(O)c2cccnc2)CCN2CCCC12 (single isomer, unassigned) [87c]  96%
4. Cc1ccc2c(c1)c1c(n2CC(C)(O)c2cccnc2)CC2CCCN2C1 (single isomer, unassigned) [38c]  43%

Same assay, conditions: 30 nM compound; Protocol Group B; 0.03 µM

In order of rising “Percentage inhibition of ligand binding, Adrenergic α2B (30 nM)” value:
1. Cc1ccc2c(c1)c1c(n2CC(C)(O)c2cccnc2)CC2CCCN2C1 (single isomer, unassigned) [38c]  71%
2. Cc1ccc2c(c1F)c1c(n2CC(C)(O)c2cccnc2)CCN2CCCC12 (single isomer, unassigned) [87c]  99%
3. Cc1cc(F)c2c(c1)c1c(n2CC(C)(O)c2ccncc2)CCN2CCCC12 (single isomer, unassigned) [81b]  100%
4. CC(O)(Cn1c2c(c3cc(F)cc(Cl)c31)C1CCCN1CC2)c1cccnc1 (single isomer, unassigned) [89d]  115%

Same assay, conditions: 0.1 μM compound; Protocol Group B; 0.1 µM

In order of falling “Percentage inhibition of ligand binding, Adrenergic α2B (0.1 μM)” value:
1. Cc1cc(F)c2c(c1)c1c(n2CC(C)(O)c2ccncc2)CCN2CCCC12 (single isomer, unassigned) [81b]  100%
2. Cc1ccc2c(c1)c1c(n2CC(C)(O)c2cccnc2)CC2CCCN2C1 (single isomer, unassigned) [38c]  92%

Same assay, conditions: Protocol Group B; estimated Ki; read-out: Ki α2B

In order of rising Ki:
1. CC(O)(Cn1c2c(c3cc(F)cc(Cl)c31)C1CCCN1CC2)c1cccnc1 (single isomer, unassigned) [89d]  0.85 nM
2. Cc1ccc2c(c1F)c1c(n2CC(C)(O)c2cccnc2)CCN2CCCC12 (single isomer, unassigned) [87c]  0.91 nM
3. Cc1cc(F)c2c(c1)c1c(n2CC(C)(O)c2ccncc2)CCN2CCCC12 (single isomer, unassigned) [81b]  0.93 nM
